From publication PMC2859942 (PLoS ONE, 2010)

Tests used:
[1] = system: recombinant viruses (patient IN amplicons in pHXB2-ΔIN backbone) in MT4-LTR-eGFP cells; experiment: Drug susceptibility testing of replication-competent recombinant viruses (phenotypic sensitivity, eGFP readout); format: cell-based, HIV-1; details: for EVG FC (elvitegravir sensitivity fold-change in IC50): vs IIIB HIV-1 wild-type reference
[2] = system: IN WT, IN Y143C and IN Y143R; format: biochemical, HIV-1; details: strand transfer observed in the 3′end processing assay, uncleaved substrate, three enzymes
[3] = samples with the Y143C/H/R mutations

| Structure (SMILES) | EVG FC (elvitegravir sensitivity fold-change in IC50) ([1]; patient 1, D0, integrase mutations V72I I203M) | EVG FC (elvitegravir sensitivity fold-change in IC50) ([1]; patient 1, M3 on RAL, V72I L74L/M T97A/T Y143C I203M) | EVG FC (elvitegravir sensitivity fold-change in IC50) ([1]; patient 1, M9 (RAL removed after month 6), V72I I203M) | EVG FC (elvitegravir sensitivity fold-change in IC50) ([1]; patient 1, M12 (RAL removed after month 6), V72I I203M) | EVG FC (elvitegravir sensitivity fold-change in IC50) ([1]; patient 2, D0, V151I/V) | EVG FC (elvitegravir sensitivity fold-change in IC50) ([1]; patient 2, M3 on RAL, N155N/H) | EVG FC (elvitegravir sensitivity fold-change in IC50) ([1]; patient 2, M6 on RAL, T97A/T G163G/R Y143Y/C/H/R) | EVG FC (elvitegravir sensitivity fold-change in IC50) ([1]; patient 2, M9 on RAL, T97A/T G163G/R Y143Y/C/H/R) | EVG FC (elvitegravir sensitivity fold-change in IC50) ([1]; patient 3, D0, V72I) | EVG FC (elvitegravir sensitivity fold-change in IC50) ([1]; patient 3, M6 on RAL, V72I T97A/T Y143C/H/R/Y) | EVG FC (elvitegravir sensitivity fold-change in IC50) ([1]; patient 3, M12 on RAL, V72I T97A/T Y143C/H/R/Y) | median EVG FC [1, 3] | range of EVG FC [1, 3] | median RAL FC [1, 3] | range of RAL FC [1, 3] | concentration of drug for complete inhibition of ST [2] [µM] |
| --- | --- | --- | --- | --- | --- | --- | --- | --- | --- | --- | --- | --- | --- | --- | --- | --- |
| COc1cc2c(cc1Cc1cccc(Cl)c1F)c(=O)c(C(=O)O)cn2[C@H](CO)C(C)C [EVG, elvitegravir] | 0.89 | 1.56 | 0.83 | 1.43 | 0.94 | 6.05 | 6.23 | 2.68 | 0.60 | 3 | 9.57 | 3 | 1.56–9.57 |  |  |  |
| Cc1nnc(C(=O)NC(C)(C)c2nc(C(=O)NCc3ccc(F)cc3)c(O)c(=O)n2C)o1 [RAL, raltegravir] |  |  |  |  |  |  |  |  |  |  |  |  |  | 24.83 | 5.87–51.95 | 0.4 |
